{
  "source": "patent US20220257698A1",
  "about": "“ANGIOTENSIN TYPE 2 (AT2) RECEPTOR AGONISTS FOR USE IN THE TREATMENT OF CANCER” (LANTHIOPEP B.V., priority 2019, published 2022)",
  "format_in_all_cases": "in vivo, cd1 nu/nu mice (human GBM cell line)",
  "key": {"[1]": {"tested_on": "U87MG glioblastoma CDX", "experiment": "Subcutaneous U87MG glioblastoma CDX: tumor weight and time of tumor progression", "conditions": "for tumor weight [%]: relative to vehicle = 100", "description": "Effects of KcAng(1-7) were evaluated in vivo in a subcutaneous GBM xenograft model in nude mice. Insurgence of neurologic phenomena and differences in the survival rates were evaluated. Human GBM cell lines U87MG and U251MG were used. Cell lines were grown in DMEM nutrient mixture supplemented with 10% fetal bovine serum, 1% penicillin/streptomycin, and 25 mM HEPES buffer. All cell lines were cultured at 37° C. in a humidified atmosphere consisting of 5% CO2 and 95% air. Medium was changed every 2 days and the cell morphology was evaluated under microscope daily.\nSix-week-old male athymic nude mice (age 5-7 weeks) were housed with free access to food and water in a temperature-controlled room. Each group is represented by 10 xenograft cd1 nu/nu mice. The mice were injected s.c. in the right distal hind limb with one million of cultured human tumor cell lines suspended in 0.15 mL of 2:1 solution of PBS/Matrigel (Matrigel BD Biosciences). Xenografts were measured every four days with a digital caliper in two perpendicular dimensions. Tumor volume was calculated according to the following formula:\nTumor volume=(tumor width)×(tumor width)×(tumor length)÷2\nAt the end of experiments, mice were euthanized and tumors removed. Weight loss or other signs of distress such as hunched posture were checked during and after treatments.\nEfficacy of treatment was evaluated by: (1) the size of tumors (vehicle control and treated), (2) the relative weight at the end of experiment, and (3) the indirect evaluation of angiogenesis by determining hemoglobin levels.\nIn vivo tumor response to treatment was evaluated using the following parameters: (i) Complete response (CR): defined as the disappearance of a measurable lesion, (ii) Partial response (PR): defined as a reduction of greater than 50% of the sum of the products of the cross-sectional diameters of the measurable lesion, (iii) Stable disease (SD): defined as a reduction of less than 50% or an increase of less than 25% in the sum of the products of the cross-sectional diameters of the measurable lesions, (iv) Tumor progression (TP): defined as an increase of greater than […] in the sum of the products of the cross-sectional diameters of the measured lesion, (v) Time to progression (TTP) defining the tumor growth delay. Tumor progression was calculated through the analysis of bioluminescence imaging (BLI) photon counts and when possible through the analyses of tumor volumes calculated by magnetic resonance imaging (MRI), (vi) Disease free survival (DFS) is the time elapsed between the time point at which no luciferase activity is detectable anymore and the death of the animal, (vii) Overall survival (OS) is the time elapsed between tumor inoculation and death of the animal. […] Luciferase transfected cells were used for bioluminescence evaluations.\nData are presented as mean and standard error of the mean (SEM) or standard deviation (SD). Statistical comparisons between control and treated groups were established by carrying out the Kruskal-Wallis test (a nonparametric one-way analysis of variance) or the Mann-Whitney test (in the case of two groups). The level of significance was corrected by multiplying the P value by the number of comparisons performed (n) according to […] correction. TP, TTP and DFS were analyzed by Kaplan-Meier curves and Gehan's generalized Wilcoxon test. All statistical analyses were undertaken using SPSS 10.0.\nMice with U87MG cell CDX were randomized at day 0. KcAng(1-7) was injected daily subcutaneously (0.2 μg/kg) starting at day 0 until the (ethical) endpoint maximally at day 42. TMZ was administered at 16 mg/kg during 5 consecutive days, that is from […]. Volumetric evaluation of the tumor was performed every 4 days and tumor weight was measured at the end of the experiment.\nSynergism was determined using the methods described in Clarke et al. Breast Cancer Research and Treatment 46:255-278 (1997).\nMice with U87MG cell CDX were randomized at day 0. […]"}, "[2]": {"tested_on": "U251MG glioblastoma CDX", "experiment": "Subcutaneous U251MG glioblastoma CDX: time of tumor progression", "conditions": "KcAng(1-7) 1 μg/kg/d, Losartan 20 mg/kg/d, or both", "description": "Effects of KcAng(1-7) were evaluated in vivo in a subcutaneous GBM xenograft model in nude mice. Insurgence of neurologic phenomena and differences in the survival rates were evaluated. Human GBM cell lines U87MG and U251MG were used. Cell lines were grown in DMEM nutrient mixture supplemented with 10% fetal bovine serum, 1% penicillin/streptomycin, and 25 mM HEPES buffer. All cell lines were cultured at 37° C. in a humidified atmosphere consisting of 5% CO2 and 95% air. Medium was changed every 2 days and the cell morphology was evaluated under microscope daily. Six-week-old male athymic nude mice (age 5-7 weeks) were housed with free access to food and water in a temperature-controlled room. Each group is represented by 10 xenograft cd1 nu/nu mice. […] Xenografts were measured every four days with a digital caliper in two perpendicular dimensions. Tumor volume was calculated according to the following formula: In vivo tumor response to treatment was evaluated using the following parameters: […] […] TP, TTP and DFS were analyzed by Kaplan-Meier curves and Gehan's generalized Wilcoxon test. […]"}, "[3]": {"tested_on": "U87MG glioblastoma CDX", "experiment": "Tumor hemoglobin level (indirect angiogenesis) in U87MG CDX", "conditions": "KcAng(1-7) 1 μg/kg/d, Losartan 20 mg/kg/d, or both", "description": "Efficacy of treatment was evaluated by: […] Mice with U87MG cell CDX were randomized at day 0. KcAng(1-7) was injected subcutaneously (1 μg/kg) on a daily basis. Losartan was administered intraperitoneal at 20 mg/kg/day. […] In brief, tumors were homogenized in double-distilled water. Eighty microliters of homogenates were mixed with 1 mL of Drabkin's solution and incubated for 15 min at room temperature. After centrifugation at 400×g for 5 min, the supernatants were subjected to absorbance measurement at 540 nm. The absorption, which is proportional to hemoglobin concentration, was divided by tumor weight."}, "[4]": {"tested_on": "U251MG glioblastoma CDX", "experiment": "Tumor hemoglobin level (indirect angiogenesis) in U251MG CDX", "conditions": "KcAng(1-7) 1 μg/kg/d, Losartan 20 mg/kg/d, or both", "description": "Efficacy of treatment was evaluated by: […] In brief, tumors were homogenized in double-distilled water. Eighty microliters of homogenates were mixed with 1 mL of Drabkin's solution and incubated for 15 min at room temperature. After centrifugation at 400×g for 5 min, the supernatants were subjected to absorbance measurement at 540 nm. The absorption, which is proportional to hemoglobin concentration, was divided by tumor weight. Effect of KcAng(1-7) and Losartan against heterotopic U251MG cell culture-based xenografts (CDX) in mice. Animals were treated either with vehicle, treated with 20 mg/kg/d Losartan, treated with 1 μ[…](1-7) or treated with a combination of KcAng(1-7) and with Losartan."}},
  "data": [
    {"smiles": "CCCCc1nc(Cl)c(CO)n1Cc1ccc(-c2ccccc2-c2nn[nH]n2)cc1", "note": "[Losartan, reference compound]", "values": [
      {"measurement": "Time of tumor progression - TTP, mean (days ± SEM)", "setting": "[1]; KcAng(1-7) 1 μg/kg/d s.c., Losartan 20 mg/kg/d i.p., or both", "result": "13.0 ± 0.6", "unit": "days"},
      {"measurement": "Tumor weight, mean (mg ± SEM)", "setting": "[1]; KcAng(1-7) 1 μg/kg/d s.c., Losartan 20 mg/kg/day i.p., or both", "result": "830 ± 57", "unit": "mg"},
      {"measurement": "tumor weight [%]", "setting": "[1]; KcAng(1-7) 1 μg/kg/d, Losartan 20 mg/kg/d, or both", "result": 79.8, "unit": "%"},
      {"measurement": "Time of tumor progression - TTP, mean (days ± SEM)", "setting": "[2]", "result": "10.6 ± 0.6", "unit": "days"},
      {"measurement": "Tumor hemoglobin level, mean (± SEM)", "setting": "[3]", "result": "15.2 ± 1.0 mg hemoglobin/g of tissue"},
      {"measurement": "Tumor hemoglobin level, mean (± SEM)", "setting": "[4]", "result": "32.1 ± 3.1 mg Hb/g of tissue"}
    ]},
    {"smiles": "Cn1nnc2c(C(N)=O)ncn2c1=O", "note": "[Temozolomide, temozolomide, reference compound]", "values": [
      {"measurement": "Time of tumor progression - TTP, mean (days ± SD)", "setting": "[1]; KcAng(1-7) 0.2 μg/kg/d s.c., TMZ 16 mg/kg for 5 days, or both", "result": "17.00 ± 0.54", "unit": "days"},
      {"measurement": "Tumor weight, mean (mg ± SD)", "setting": "[1]; end of experiment, KcAng(1-7) 0.2 μg/kg/d s.c., TMZ 16 mg/kg for 5 days, or both", "result": "445 ± 28", "unit": "mg"},
      {"measurement": "tumor weight [%]", "setting": "[1]; KcAng(1-7) 0.2 μg/kg/d, TMZ 16 mg/kg, or both", "result": 42.8, "unit": "%"}
    ]}
  ]
}
